Experimental data as given in patent US4401660A, “Ester derivatives of 5-O-mycaminosyl tylonolide and method of using same” (Eli Lilly and Company, priority 1981, dated 1983).

Tests used:
[1] = tested on: Staphylococcus aureus X400; test: MIC, standard agar-dilution assay (Table II); type: cell-based; parameters: unit not given here; settings: Staphylococcus aureus X400, methicillin-resistant strain
Experimental: (§1) The MIC's in Table II were determined by standard agar-dilution assays. The MIC's in Table III were obtained using a conventional broth-dilution microtiter test.

[2] = tested on: Staphylococcus aureus X1.1; test: MIC, standard agar-dilution assay (Table II); type: cell-based; parameters: unit not given here
Experimental: as §1

[3] = tested on: Staphylococcus aureus V41; test: MIC, standard agar-dilution assay (Table II); type: cell-based; parameters: unit not given here; settings: Staphylococcus aureus V41, penicillin-resistant strain
Experimental: as §1

[4] = tested on: Staphylococcus epidermidis EPI1; test: MIC, standard agar-dilution assay (Table II); type: cell-based; parameters: unit not given here
Experimental: as §1

[5] = tested on: Streptococcus Group D X66; test: MIC, standard agar-dilution assay (Table II); type: cell-based; parameters: unit not given here
Experimental: as §1

[6] = tested on: Streptococcus Group D 9960; test: MIC, standard agar-dilution assay (Table II); type: cell-based; parameters: unit not given here
Experimental: as §1

[7] = tested on: Staphylococcus epidermidis EPI2; test: MIC, standard agar-dilution assay (Table II); type: cell-based; parameters: unit not given here
Experimental: as §1

[8] = tested on: Streptococcus pneumoniae Park I; test: MIC, standard agar-dilution assay (Table II); type: cell-based; parameters: unit not given here
Experimental: as §1

[9] = tested on: Staphylococcus aureus S13E; test: MIC, standard agar-dilution assay (Table II); type: cell-based; parameters: unit not given here
Experimental: as §1

[10] = tested on: Streptococcus pyogenes C203; test: MIC, standard agar-dilution assay (Table II); type: cell-based; parameters: unit not given here
Experimental: as §1

Pasteurella multocida = test: Treatment of Pasteurella infections in chicks (Table V); type: in vivo, one-day-old chicks; settings: Pasteurella multocida, sc, 4 h; 30 mg/kg by subcutaneous injection one and four hours post challenge; read-out: Deaths in Treated Chicks/Number Treated (converted)
Experimental: Certain OMT ester derivatives are active in vivo against Pasteurella infections. Table V summarizes the results of tests in which the ester derivatives were administered to one-day-old chicks at a dosage level of 30 mg/kg by subcutaneous injection one and four hours post challenge of the chicks with Pasteurella multocida (0.1 ml of a 10^-3 dilution of a 20-hour tryptose broth culture of avian P. multocida given subcutaneously). All nonmedicated infected chicks (ten in each control group) died within 24 hours of Pasteurella challenge.

[11] = tested on: Pasteurella multocida 22A; test: MIC, broth-dilution microtiter test (Table III); type: cell-based; parameters: unit not given here
Experimental: as §1

[12] = tested on: Pasteurella haemolytica 23C; test: MIC, broth-dilution microtiter test (Table III); type: cell-based; parameters: unit not given here
Experimental: as §1

[13] = tested on: Pasteurella multocida 68C; test: MIC, broth-dilution microtiter test (Table III); type: cell-based; parameters: unit not given here
Experimental: as §1

[14] = tested on: Pasteurella multocida 40G; test: MIC, broth-dilution microtiter test (Table III); type: cell-based; parameters: unit not given here
Experimental: as §1

Mycoplasma hyorhinis = test: MIC, broth-dilution microtiter test (Table III); type: cell-based; parameters: unit not given here
Experimental: as §1

Streptococcus sp. 80 = test: MIC, broth-dilution microtiter test (Table III); type: cell-based; parameters: unit not given here
Experimental: as §1

[15] = tested on: Pasteurella multocida 60A; test: MIC, broth-dilution microtiter test (Table III); type: cell-based; parameters: unit not given here; settings: avian isolate
Experimental: as §1

Staphylococcus aureus = test: MIC, broth-dilution microtiter test (Table III); type: cell-based; parameters: unit not given here
Experimental: as §1

[16] = tested on: Pasteurella haemolytica 22C; test: MIC, broth-dilution microtiter test (Table III); type: cell-based; parameters: unit not given here
Experimental: as §1

Mycoplasma gallisepticum = test: MIC, broth-dilution microtiter test (Table III); type: cell-based; parameters: unit not given here
Experimental: as §1

[17] = tested on: Pasteurella multocida 17E; test: MIC, broth-dilution microtiter test (Table III); type: cell-based; parameters: unit not given here; settings: bovine isolate
Experimental: as §1

[18] = tested on: Pasteurella haemolytica 41D; test: MIC, broth-dilution microtiter test (Table III); type: cell-based; parameters: unit not given here
Experimental: as §1

Mycoplasma synoviae = test: MIC, broth-dilution microtiter test (Table III); type: cell-based; parameters: unit not given here
Experimental: as §1

[19] = tested on: Haemophilus influenzae R252; test: MIC, standard agar-dilution assay (Table II); type: cell-based; parameters: unit not given here; settings: Haemophilus influenzae R252, ampicillin-resistant strain
Experimental: as §1

[20] = tested on: Haemophilus influenzae Holt; test: MIC, standard agar-dilution assay (Table II); type: cell-based; parameters: unit not given here; settings: ampicillin-sensitive strain
Experimental: as §1

Compound	minimal inhibitory concentration (MIC) [1]	minimal inhibitory concentration (MIC) [2]	minimal inhibitory concentration (MIC) [3]	minimal inhibitory concentration (MIC) [4]	minimal inhibitory concentration (MIC) [5]	minimal inhibitory concentration (MIC) [6]	minimal inhibitory concentration (MIC) [7]	minimal inhibitory concentration (MIC) [8]	minimal inhibitory concentration (MIC) [9]	minimal inhibitory concentration (MIC) [10]	mortality at 30 mg/kg (Pasteurella multocida)	minimal inhibitory concentration (MIC) [11]	minimal inhibitory concentration (MIC) [12]	minimal inhibitory concentration (MIC) (Mycoplasma hyorhinis)	minimal inhibitory concentration (MIC) (Streptococcus sp. 80)	minimal inhibitory concentration (MIC) [15]	minimal inhibitory concentration (MIC) (Staphylococcus aureus)	minimal inhibitory concentration (MIC) (Mycoplasma gallisepticum)	minimal inhibitory concentration (MIC) [17]	minimal inhibitory concentration (MIC) (Mycoplasma synoviae)	also measured
CCC1OC(=O)CC(O)C(C)C(OC2OC(C)C(OC(C)=O)C(N(C)C)C2OC(C)=O)C(CC=O)CC(C)C(=O)C=CC(C)=CC1COC(=O)[C@H](O)c1ccccc1 (stereo partly drawn) [Compound 41, 2',4'-Di-O-acetyl-23-O-(D-mandeloyl)-OMT]	0.5	0.125	0.25	0.25	0.125	0.25	0.25	0.03	0.25	0.06	100%	3.12	6.25	12.5	0.195	3.12	0.78	0.195	3.12	0.39	minimal inhibitory concentration (MIC) [13]: 3.12; minimal inhibitory concentration (MIC) [14]: 3.12; minimal inhibitory concentration (MIC) [16]: 6.25; minimal inhibitory concentration (MIC) [18]: 6.25
CCC1OC(=O)CC(O)C(C)C(OC2OC(C)C(O)C(N(C)C)C2O)C(CC=O)CC(C)C(=O)C=CC(C)=CC1COC(=O)Cc1ccc(Cl)cc1 (stereo not shown) [Compound 32, 23-O-(p-Chlorophenylacetyl)-OMT]	0.25	0.125	0.25	0.125	0.125	0.125	0.25	0.03	0.125	0.06	20%	0.78	3.12	3.12	0.097	0.78	0.097	< 0.05	1.56	< 0.05	minimal inhibitory concentration (MIC) [13]: 0.39; minimal inhibitory concentration (MIC) [14]: 1.56; minimal inhibitory concentration (MIC) [16]: 1.56; minimal inhibitory concentration (MIC) [18]: 3.12
CCC1OC(=O)CC(O)C(C)C(OC2OC(C)C(OC(C)=O)C(N(C)C)C2OC(C)=O)C(CC=O)CC(C)C(=O)C=CC(C)=CC1COC(=O)Cc1cccnc1 (stereo not shown) [Compound 43, 2',4'-Di-O-acetyl-23O-(3-pyridylacetyl)-OMT]	0.5	0.25	0.5	0.25	0.25	0.25	0.5	0.06	0.25	0.06	80%	3.12	6.25	0.78	0.195	3.12	0.39	0.78	3.12	< 0.05	minimal inhibitory concentration (MIC) [13]: 1.56; minimal inhibitory concentration (MIC) [14]: 3.12; minimal inhibitory concentration (MIC) [16]: 6.25; minimal inhibitory concentration (MIC) [18]: 3.12
CCC1OC(=O)CC(O)C(C)C(OC2OC(C)C(O)C(N(C)C)C2OC(C)=O)C(CC=O)CC(C)C(=O)C=CC(C)=CC1COC(=O)Cc1ccc(Cl)cc1 (stereo not shown) [Compound 31, 2'-O-Acetyl-23-O-(p-chlorophenylacetyl)-OMT]	0.25	0.125	0.125	0.125	0.125	0.125	0.25	0.03	0.125	0.125	100%	1.56	1.56	3.12	< 0.05	0.78	< 0.05	< 0.05	1.56	< 0.05	minimal inhibitory concentration (MIC) [13]: 0.78; minimal inhibitory concentration (MIC) [14]: 1.56; minimal inhibitory concentration (MIC) [16]: 1.56; minimal inhibitory concentration (MIC) [18]: 3.12
CCCCCCCC(=O)OCC1C=C(C)C=CC(=O)C(C)CC(CC=O)C(OC2OC(C)C(O)C(N(C)C)C2O)C(C)C(O)CC(=O)OC1CC (stereo not shown) [Compound 24]	0.5	0.25	0.5	0.25	0.5	0.5	0.25	0.125	0.25	0.5	10%			6.25	0.39	6.25	0.78	< 0.05	6.25	0.097	minimal inhibitory concentration (MIC) [19]: 4; minimal inhibitory concentration (MIC) [20]: 4
CCC1OC(=O)CC(O)C(C)C(OC2OC(C)C(O)C(N(C)C)C2O)C(CC=O)CC(C)C(=O)C=CC(C)=CC1COC(=O)C(C)C (stereo not shown) [Compound 18]	0.5	0.25	0.5	0.25	0.5	0.5	0.5	0.25	0.25	0.5	0%			0.39	0.195	3.12	0.78	< 0.05	1.56	< 0.05	minimal inhibitory concentration (MIC) [19]: 4; minimal inhibitory concentration (MIC) [20]: 2
